These results are taken from ChEMBL document CHEMBL1133639, “Subtype-selective N-methyl-D-aspartate receptor antagonists: synthesis and biological evaluation of 1-(heteroarylalkynyl)-4-benzylpiperidines” (J Med Chem, 2000).

The target of test [1] is Glutamate receptor ionotropic, NMDA 1 (Homo sapiens, UniProt Q05586). Kind of test: Concentration required for 50% Inhibition of responses at cloned NR1A/2AB NMDA expressed in Xenopus oocytes. The format is cell-based, Oocyte.
Test [2] deals with Glutamate receptor ionotropic, NMDA 1 (Homo sapiens, UniProt Q05586+Q14957). Kind of test: Concentration required for 50% Inhibition of responses at cloned NR1A/2C NMDA expressed in Xenopus oocytes. The test is classed as cell-based, Oocyte.
The target of test [3] is Glutamate receptor ionotropic, NMDA 1 (Homo sapiens, UniProt Q05586+Q12879). The experiment in a line: Concentration required for 50% Inhibition of responses at cloned NR1A/2A NMDA expressed in Xenopus oocytes. The format is cell-based, Oocyte.
For test [4], the target named is Glutamate NMDA receptor; Grin1/Grin2a (Rattus norvegicus, UniProt P35439+Q00959). Kind of test: Concentration required for 50% Inhibition of responses at cloned NR1A/2A N-methyl-D-aspartate (NMDA) expressed in Xenopus oocytes. The format is cell-based, Oocyte.
Test [5] has as its target Glutamate receptor ionotropic, NMDA 2C (Rattus norvegicus, UniProt P35439+Q00961). The experiment in a line: Concentration required for 50% Inhibition of responses at cloned NR1A/2C N-methyl-D-aspartate (NMDA) expressed in Xenopus oocytes. The format is cell-based, Oocyte.
Test [6] addresses T1, Adrenergic receptor alpha-1 (Rattus norvegicus, UniProt P15823+P23944+P43140).
T1 sequence (P15823 whole entry): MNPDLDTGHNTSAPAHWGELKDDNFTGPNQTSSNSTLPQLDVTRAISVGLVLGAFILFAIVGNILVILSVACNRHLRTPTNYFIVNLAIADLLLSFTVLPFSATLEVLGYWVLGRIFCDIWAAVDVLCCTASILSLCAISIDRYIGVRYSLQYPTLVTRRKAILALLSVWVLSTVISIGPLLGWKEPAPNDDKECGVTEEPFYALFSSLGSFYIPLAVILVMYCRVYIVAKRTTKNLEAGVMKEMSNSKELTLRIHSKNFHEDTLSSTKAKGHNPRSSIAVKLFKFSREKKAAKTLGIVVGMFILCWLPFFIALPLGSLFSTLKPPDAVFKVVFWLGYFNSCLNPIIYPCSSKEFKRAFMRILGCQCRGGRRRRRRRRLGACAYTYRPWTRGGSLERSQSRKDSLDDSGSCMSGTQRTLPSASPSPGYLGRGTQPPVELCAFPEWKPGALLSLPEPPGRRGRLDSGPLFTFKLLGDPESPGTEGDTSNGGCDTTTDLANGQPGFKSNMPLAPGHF
T1 sequence (P23944 whole entry): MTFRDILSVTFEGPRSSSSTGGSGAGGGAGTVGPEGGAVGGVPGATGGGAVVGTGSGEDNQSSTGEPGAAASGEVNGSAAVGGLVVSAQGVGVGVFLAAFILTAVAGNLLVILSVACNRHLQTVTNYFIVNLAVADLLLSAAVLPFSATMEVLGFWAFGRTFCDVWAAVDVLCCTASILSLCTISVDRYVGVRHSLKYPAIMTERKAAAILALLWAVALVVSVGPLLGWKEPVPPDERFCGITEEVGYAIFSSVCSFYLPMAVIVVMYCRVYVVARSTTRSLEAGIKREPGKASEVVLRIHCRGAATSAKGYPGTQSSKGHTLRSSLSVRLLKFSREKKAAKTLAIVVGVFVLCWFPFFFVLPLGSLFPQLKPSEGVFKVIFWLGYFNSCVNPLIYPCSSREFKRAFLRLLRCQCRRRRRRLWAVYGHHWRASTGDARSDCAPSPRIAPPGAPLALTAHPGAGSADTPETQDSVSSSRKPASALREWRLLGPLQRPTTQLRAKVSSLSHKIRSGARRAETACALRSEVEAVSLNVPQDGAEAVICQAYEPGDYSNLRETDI
T1 sequence (P43140 whole entry): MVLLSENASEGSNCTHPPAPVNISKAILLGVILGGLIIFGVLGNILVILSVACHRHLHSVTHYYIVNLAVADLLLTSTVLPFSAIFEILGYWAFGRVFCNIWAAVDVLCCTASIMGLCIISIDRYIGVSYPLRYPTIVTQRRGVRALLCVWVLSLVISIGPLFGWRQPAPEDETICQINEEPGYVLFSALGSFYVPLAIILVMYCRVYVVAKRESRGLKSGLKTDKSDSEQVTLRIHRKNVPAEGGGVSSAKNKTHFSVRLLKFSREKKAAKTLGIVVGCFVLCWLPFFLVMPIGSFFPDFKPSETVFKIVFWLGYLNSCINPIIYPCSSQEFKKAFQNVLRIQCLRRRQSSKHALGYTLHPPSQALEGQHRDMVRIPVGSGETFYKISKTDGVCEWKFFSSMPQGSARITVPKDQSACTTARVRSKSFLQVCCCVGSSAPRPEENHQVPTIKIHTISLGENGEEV
The experiment in a line: Displacement of [3H]prazosin at alpha-1 adrenergic receptor in rat brain cortices (n=1). The format is tissue-based. In general terms: Loss of bound radioactivity is the signal in a displacement assay; it reports binding, not function.

The target in test [7] is D(2) dopamine receptor (Rattus norvegicus, UniProt P61169). Kind of test: Displacement of [3H]raclopride at Dopamine receptor D2 in brain striata (n=1). The test is classed as tissue-based.
The test system of test [8] is Rattus norvegicus. Kind of test: Lowest oral dose that shows significant potentiation of total contraversive rotations over 3 hr caused by L-DOPA (10mg/kg, sc) in 6-hydroxydopamine-lesioned rats (n=8)administered perorally. The conditions noted are these: read-out: MED. The format is functional.
Test [9] has as its system Rattus norvegicus. Kind of test: Lowest oral dose that shows significant potentiation of total contraversive rotations over 3 hr caused by L-DOPA (10mg/kg, sc) in 6-hydroxydopamine-lesioned rats (n=8) administered perorally. The test is classed as functional. The settings on record: read-out: MED.
Test [10] concerns the target T1, Adrenergic receptor alpha-1. The experiment in a line: Displacement of [3H]-prazosin at alpha-1 adrenergic receptor inat brain cortices (n=1).
The test system of test [11] is Rattus norvegicus. Kind of test: Lowest oral dose that shows significant potentiation of total contraversive rotations over 3 hr caused by L-DOPA (10mg/kg, sc) in 6-hydroxydopamine-lesioned rats (n=8);administered perorally. The format is functional. The conditions noted are these: read-out: MED.

Chain of D(2) dopamine receptor (P61169 whole entry): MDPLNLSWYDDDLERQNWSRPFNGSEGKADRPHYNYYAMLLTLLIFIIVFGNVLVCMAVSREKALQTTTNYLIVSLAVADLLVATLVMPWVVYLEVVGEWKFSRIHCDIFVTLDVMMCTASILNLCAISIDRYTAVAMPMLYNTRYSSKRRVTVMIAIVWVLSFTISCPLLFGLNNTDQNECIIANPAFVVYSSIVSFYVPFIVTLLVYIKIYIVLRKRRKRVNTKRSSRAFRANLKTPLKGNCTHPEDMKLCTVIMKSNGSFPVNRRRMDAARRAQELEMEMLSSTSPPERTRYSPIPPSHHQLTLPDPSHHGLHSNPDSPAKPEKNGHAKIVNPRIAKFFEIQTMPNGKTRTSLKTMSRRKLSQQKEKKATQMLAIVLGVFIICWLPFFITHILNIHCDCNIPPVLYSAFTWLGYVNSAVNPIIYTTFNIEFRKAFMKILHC
Chain of Glutamate receptor ionotropic, NMDA 2C (Q00961 whole entry, one chain of several): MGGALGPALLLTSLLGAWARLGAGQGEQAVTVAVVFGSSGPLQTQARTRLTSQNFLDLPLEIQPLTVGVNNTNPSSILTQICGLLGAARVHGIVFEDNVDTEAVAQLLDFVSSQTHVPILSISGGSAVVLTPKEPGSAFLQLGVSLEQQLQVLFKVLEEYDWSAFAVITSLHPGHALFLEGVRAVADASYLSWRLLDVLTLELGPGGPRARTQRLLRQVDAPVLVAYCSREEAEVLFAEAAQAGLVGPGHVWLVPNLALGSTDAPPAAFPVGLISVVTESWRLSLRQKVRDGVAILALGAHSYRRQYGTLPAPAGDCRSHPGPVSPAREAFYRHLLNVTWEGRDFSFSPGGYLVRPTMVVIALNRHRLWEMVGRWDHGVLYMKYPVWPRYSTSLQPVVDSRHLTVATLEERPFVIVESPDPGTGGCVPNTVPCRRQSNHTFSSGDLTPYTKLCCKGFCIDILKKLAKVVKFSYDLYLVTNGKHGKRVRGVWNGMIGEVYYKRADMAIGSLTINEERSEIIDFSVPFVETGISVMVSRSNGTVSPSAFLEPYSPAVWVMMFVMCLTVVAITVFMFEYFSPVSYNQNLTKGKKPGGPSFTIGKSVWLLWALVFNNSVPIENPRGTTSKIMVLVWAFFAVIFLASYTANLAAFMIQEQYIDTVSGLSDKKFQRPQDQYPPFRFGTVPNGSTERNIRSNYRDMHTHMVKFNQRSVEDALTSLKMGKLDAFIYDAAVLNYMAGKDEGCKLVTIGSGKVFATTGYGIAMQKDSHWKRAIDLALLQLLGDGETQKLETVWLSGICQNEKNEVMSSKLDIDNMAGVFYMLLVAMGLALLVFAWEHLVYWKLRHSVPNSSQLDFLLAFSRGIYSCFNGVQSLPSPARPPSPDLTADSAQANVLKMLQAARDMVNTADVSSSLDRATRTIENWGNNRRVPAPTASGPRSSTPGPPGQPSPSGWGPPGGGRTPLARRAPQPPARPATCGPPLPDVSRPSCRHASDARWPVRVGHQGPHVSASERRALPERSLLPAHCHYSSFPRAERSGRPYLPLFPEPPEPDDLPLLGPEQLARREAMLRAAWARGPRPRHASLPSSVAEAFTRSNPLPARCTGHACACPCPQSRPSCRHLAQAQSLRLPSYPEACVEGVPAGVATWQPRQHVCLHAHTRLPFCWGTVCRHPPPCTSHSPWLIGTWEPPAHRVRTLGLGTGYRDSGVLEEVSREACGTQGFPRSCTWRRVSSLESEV
Chain of Glutamate NMDA receptor; Grin1/Grin2a (Q00959 whole entry, looked up, other chains not shown): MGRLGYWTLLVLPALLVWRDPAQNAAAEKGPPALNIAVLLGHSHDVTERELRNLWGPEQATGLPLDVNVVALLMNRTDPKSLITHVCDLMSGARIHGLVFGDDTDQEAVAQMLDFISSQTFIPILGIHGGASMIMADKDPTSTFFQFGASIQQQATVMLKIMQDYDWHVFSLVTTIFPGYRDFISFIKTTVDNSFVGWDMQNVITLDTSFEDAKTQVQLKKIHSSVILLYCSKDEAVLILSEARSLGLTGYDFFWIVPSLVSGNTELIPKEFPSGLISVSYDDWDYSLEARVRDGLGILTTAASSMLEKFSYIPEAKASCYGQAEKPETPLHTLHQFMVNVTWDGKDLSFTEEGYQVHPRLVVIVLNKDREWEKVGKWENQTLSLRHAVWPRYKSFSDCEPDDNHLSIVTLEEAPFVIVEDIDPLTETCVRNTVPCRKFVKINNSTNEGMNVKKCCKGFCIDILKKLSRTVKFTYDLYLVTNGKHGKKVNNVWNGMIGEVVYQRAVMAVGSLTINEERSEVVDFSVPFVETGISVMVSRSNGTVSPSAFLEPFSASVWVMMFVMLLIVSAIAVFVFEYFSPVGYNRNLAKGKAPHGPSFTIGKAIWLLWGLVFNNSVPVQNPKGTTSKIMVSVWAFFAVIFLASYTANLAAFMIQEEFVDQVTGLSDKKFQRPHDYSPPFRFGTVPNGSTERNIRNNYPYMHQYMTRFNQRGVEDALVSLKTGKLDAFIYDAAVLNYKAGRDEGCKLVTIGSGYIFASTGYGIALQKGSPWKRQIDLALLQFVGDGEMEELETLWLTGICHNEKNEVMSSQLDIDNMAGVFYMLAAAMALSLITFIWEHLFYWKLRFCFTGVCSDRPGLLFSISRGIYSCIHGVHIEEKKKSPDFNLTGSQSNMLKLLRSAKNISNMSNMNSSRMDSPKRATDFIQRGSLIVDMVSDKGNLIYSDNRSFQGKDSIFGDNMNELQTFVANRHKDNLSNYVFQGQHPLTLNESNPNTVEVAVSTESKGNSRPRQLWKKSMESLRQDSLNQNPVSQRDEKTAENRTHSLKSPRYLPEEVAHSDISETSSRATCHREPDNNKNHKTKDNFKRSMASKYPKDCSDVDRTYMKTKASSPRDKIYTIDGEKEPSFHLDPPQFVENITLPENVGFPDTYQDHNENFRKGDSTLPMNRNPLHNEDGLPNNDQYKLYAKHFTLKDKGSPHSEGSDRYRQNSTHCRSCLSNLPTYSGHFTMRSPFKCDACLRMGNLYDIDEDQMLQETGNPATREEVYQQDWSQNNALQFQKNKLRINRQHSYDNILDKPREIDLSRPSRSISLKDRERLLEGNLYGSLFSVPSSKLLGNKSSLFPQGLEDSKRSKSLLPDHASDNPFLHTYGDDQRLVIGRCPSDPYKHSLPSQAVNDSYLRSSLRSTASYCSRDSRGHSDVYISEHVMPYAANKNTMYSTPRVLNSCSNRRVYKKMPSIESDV

As a reminder, the IC50 is the concentration needed to halve the response being measured. High values mean a need for much substance, low ones inhibition by little substance. As for `C(#Cc1ccc2[nH]ccc2c1)CN1CCC(Cc2ccccc2)CC1`, the figures for the IC50 in [1], in test [2] and in test [3] were 15 µM, over 100 µM and over 100 µM, respectively.

As for `C(#Cc1ccc2cc[nH]c2c1)CCN1CCC(Cc2ccccc2)CC1`, the IC50 in test [4] and in [5] was over 100 µM each time.

As to `Oc1nc2cc(C#CCN3CCC(Cc4ccccc4)CC3)ccc2[nH]1`, the IC50 in test [6] turned out to be 0.5 µM; in [7], 2.6 µM. Besides, in test [8], the minimal effective dose worked out at 10 mg/kg.

On to `C(#Cc1ccc2[nH]ncc2c1)CN1CCC(Cc2ccccc2)CC1`, for which the IC50 in [1] was 0.38 µM; in test [2] it was over 100 µM; in test [3], over 100 µM.

Turning to `Cc1ccc(CC2CCN(CC#Cc3ccc4[nH]c(O)nc4c3)CC2)cc1`, the values for the half-maximal inhibitory concentration (IC50) in test [6], in test [7] and in test [1] were 3.1 µM, 14 µM and 0.017 µM, respectively. Moreover, the minimal effective dose in test [8] is 30 mg/kg.

For the molecule `O=c1[nH]c2ccc(C#CCCN3CCC(Cc4ccccc4)CC3)cc2o1`, the IC50 is 0.12 µM in [1], over 100 µM in [2] and 39 µM in [3].

Consider `C(#Cc1ccc2[nH]nnc2c1)CN1CCC(Cc2ccccc2)CC1`, for which the figures for the concentration for half-maximal inhibition (IC50) in test [1], in test [2] and in test [3] were 0.42 µM, over 100 µM and over 100 µM, respectively.

Turning to `O=C1Cc2cc(C#CCCN3CCC(Cc4ccccc4)CC3)ccc2N1`, the IC50 in test [1] was 0.32 µM; in test [2] it was over 100 µM; in test [3], 52 µM.

Turning to `Oc1nc2cc(C#CCN3CCC(Cc4ccc(F)cc4)CC3)ccc2[nH]1`, the half-maximal inhibitory concentration (IC50) was 1.2 µM in [6]; 1.7 µM in test [7]; 0.0082 µM in [1]; over 100 µM in [2]; 38 µM in [3]. Further, the minimal effective dose in test [8] was 30 mg/kg.

Turning to `COc1ccc(CC2CCN(CC#Cc3ccc4[nH]c(O)nc4c3)CC2)cc1`, the 50% inhibitory concentration (IC50) is 17 µM in [6]; 9.9 µM in test [7]; 0.026 µM in test [1]; over 100 µM in test [2]; over 100 µM in test [3]. The minimal effective dose in test [8] is over 30 mg/kg.

For the molecule `Oc1nc2cc(C#CCN3CCC(Cc4cccc(F)c4)CC3)ccc2[nH]1`, the IC50 in test [6] is 0.7 µM; in test [7], 3.9 µM; in [1], 0.0061 µM; in [2], over 100 µM; in test [3], over 100 µM. The minimal effective dose in test [8] is over 30 mg/kg.

As to `Oc1ccc(C#CCN2CCC(Cc3ccccc3)CC2)cc1`, the IC50 in [4] and in test [5] was over 100 µM in each case.

With `S=c1[nH]c2ccc(C#CCCN3CCC(Cc4ccccc4)CC3)cc2[nH]1`, the IC50 in test [1] is 0.18 µM; in [2], over 100 µM; in test [3], 75 µM.

On to `Oc1nc2cc(C#CCN3CCC(O)(Cc4ccccc4)CC3)ccc2[nH]1`, for which the IC50 in [6] is 55 µM; in test [7], 86 µM; in test [1], 0.019 µM; in test [2], over 100 µM; in test [3], over 100 µM.

In the case of `Oc1nc2cc(C#CCN3CCC(O)(Cc4ccc(F)cc4)CC3)ccc2[nH]1`, the IC50 in [7] is 41 µM; in test [10] it was 18 µM. Besides, the minimal effective dose in test [9] is over 30 mg/kg.

Regarding `O=C1COc2cc(C#CCCN3CCC(Cc4ccccc4)CC3)ccc2N1`, the values for the IC50 in test [1], in [2] and in test [3] were 1.1 µM, over 100 µM and over 100 µM, respectively.

Regarding `Oc1nc2cc(C#CCN3CCC(Cc4ccc(Cl)cc4)CC3)ccc2[nH]1`, the IC50 in [6] amounted to 5.8 µM; in [7] it was 3.7 µM; in [1], 0.019 µM. The minimal effective dose in test [11] is 30 mg/kg.

Turning to `S=c1[nH]c2ccc(C#CCN3CCC(Cc4ccccc4)CC3)cc2[nH]1`, the IC50 in test [1] was 0.016 µM; in [2] it was over 100 µM; in test [3], 25 µM.

As to `O=C1Cc2cc(C#CCN3CCC(Cc4ccccc4)CC3)ccc2N1`, the results for the IC50 in test [1], in [2] and in test [3] were 0.11 µM, over 100 µM and over 100 µM, respectively.

For `O=C1Nc2ccc(C#CCCN3CCC(Cc4ccccc4)CC3)cc2C1=O`, the half-maximal inhibitory concentration (IC50) was 1.8 µM in test [1], 57 µM in [3] and over 100 µM in test [5].

As to `Oc1nc2ccc(C#CCN3CCC(Cc4ccccc4)CC3)cc2o1`, the half-maximal inhibitory concentration (IC50) in test [1] is 0.049 µM. This lies in the double-digit nanomolar range.

Regarding `C(#Cc1ccc2[nH]ncc2c1)CCN1CCC(Cc2ccccc2)CC1`, the IC50 in [1] is 0.25 µM; in test [2], over 100 µM; in test [3] it was 95 µM.

Molecule `Cn1c(=O)[nH]c2ccc(C#CCN3CCC(Cc4ccccc4)CC3)cc21` had a half-maximal inhibitory concentration (IC50) in test [2] of over 100 µM.

Take `O=c1[nH]c2ccc(C#CCCN3CCC(Cc4ccccc4)CC3)cc2[nH]1`: the IC50 is 0.089 µM in test [1], over 100 µM in test [2] and 39 µM in test [3].

On to `C(#Cc1ccc2nn[nH]c2c1)CCN1CCC(Cc2ccccc2)CC1`, for which the figures for the IC50 in test [1], in test [2] and in test [3] were 0.22 µM, over 100 µM and over 100 µM, respectively.

For `Cn1c(=O)[nH]c2cc(C#CCN3CCC(Cc4ccccc4)CC3)ccc21`, the results for the half-maximal inhibitory concentration (IC50) in [1], in [2] and in test [3] were 62 µM, over 100 µM and 89 µM, respectively.
